“And” between values parts separate entries of the source, which are not always exact repeats. Identical values can stand only once. ± gives the expanded uncertainty stated by the source.
Legend:
[1] = refractive index (Na D-line) (dimensionless); conditions: 298.15 K; 101.33 kPa; Liquid
[2] = 298.15 K, 101.3 kPa, Liquid; for viscosity: Capillary tube (Ostwald / Ubbelohde) method; for speed of sound: Linear variable-path acoustic interferometer; for mass density: Pycnometric method
[3] = refractive index (Na D-line) (dimensionless); xn = mol fraction of the nth substance listed; conditions: 298.15 K, 101.3 kPa, Liquid
[4] = xn = mol fraction of the nth substance listed; conditions: 298.15 K, 101.3 kPa, Liquid; for viscosity: Capillary tube (Ostwald / Ubbelohde) method; for speed of sound: Linear variable-path acoustic interferometer; for mass density: Pycnometric method

C1COCO1 [1,3-dioxolane]
Conditions	mass density [kg/m3]	refractive index	speed of sound	viscosity [mPa·s]
[1]	–	1.3985 ± 0.0013	–	–
[2]	1058.7 ± 0.7	–	1339.4 ± 1.7 m/s and 1339.5 ± 1.7 m/s	0.5894 ± 0.0049

C1COCO1 [1,3-dioxolane] + CCCCCO
Conditions	mass density, [4] [kg/m3]	refractive index, [3]	speed of sound, [4] [m/s]	viscosity, [4] [mPa·s]
x1 = 0.1168	832.9 ± 0.7	1.4085 ± 0.0013	1278.8 ± 1.7	2.505 ± 0.019
x1 = 0.2293	854.5 ± 0.7	1.4072 ± 0.0013	1287.5 ± 1.7	1.885 ± 0.015
x1 = 0.3377	876.6 ± 0.7	1.406 ± 0.0013	1296.8 ± 1.7	1.44 ± 0.011
x1 = 0.4424	899.2 ± 0.7	1.405 ± 0.0013	1305 ± 1.7	1.063 ± 0.0085
x1 = 0.5434	922.5 ± 0.7	1.404 ± 0.0013	1313.4 ± 1.7	0.9063 ± 0.0073
x1 = 0.6409	946.8 ± 0.7	1.403 ± 0.0013	1321.5 ± 1.7	0.756 ± 0.0062
x1 = 0.7352	972.5 ± 0.7	1.4022 ± 0.0013	1327.1 ± 1.7	0.6472 ± 0.0054
x1 = 0.8264	999.3 ± 0.7	1.401 ± 0.0013	1332.7 ± 1.7	0.5704 ± 0.0048
x1 = 0.9146	1028.2 ± 0.7	1.4 ± 0.0013	1337 ± 1.7	0.5413 ± 0.0046
x1 = 1	1058.7 ± 0.7	1.3985 ± 0.0013	1339.5 ± 1.7	0.5894 ± 0.0049

C1COCO1 [1,3-dioxolane] + CCOCC
x1 = 1
Conditions	mass density [kg/m3]	refractive index	speed of sound [m/s]	viscosity [mPa·s]
[3]	–	1.3985 ± 0.0013	–	–
[4]	1058.7 ± 0.7	–	1339.4 ± 1.7	0.5894 ± 0.0049

CCOCC [diethyl ether]
Conditions	mass density [kg/m3]	refractive index	speed of sound [m/s]	viscosity [mPa·s]
[1]	–	1.3515 ± 0.0013	–	–
[2]	708.3 ± 0.6	–	982.3 ± 1.5	0.2469 ± 0.0024

CCOCC [diethyl ether] + C1COCO1
Conditions	mass density, [4] [kg/m3]	refractive index, [3]	speed of sound, [4]	viscosity, [4] [mPa·s]
x2 = 0	708.3 ± 0.6	1.3515 ± 0.0013	982.3 ± 1.5 m/s	0.2469 ± 0.0024
x2 = 0.1	736.4 ± 0.7	1.3568 ± 0.0013	1003.9 ± 1.5 m/s	0.2656 ± 0.0026
x2 = 0.2	765.6 ± 0.7	1.3604 ± 0.0013	1033.4 ± 1.6 m/s	0.2844 ± 0.0027
x2 = 0.3001	796.3 ± 0.7	1.3649 ± 0.0013	1067.4 ± 1.6 m/s	0.3055 ± 0.0029
x2 = 0.4001	829 ± 0.7	1.3696 ± 0.0013	1108.5 ± 1.6 m/s	0.331 ± 0.0031
x2 = 0.5001	863.4 ± 0.7	1.3743 ± 0.0013 and 1.375 ± 0.0013	1152.8 ± 1.6 m/s and 1149.2 ± 1.6 m/s	0.3604 ± 0.0033
x2 = 0.6001	899.7 ± 0.7	1.3791 ± 0.0013	1191.4 ± 1.7 m/s	0.3944 ± 0.0035
x2 = 0.7001	938.2 ± 0.7	1.3842 ± 0.0013	1230.9 ± 1.7 m/s	0.4345 ± 0.0038
x2 = 0.8	977 ± 0.7	1.3893 ± 0.0013	1265.3 ± 1.7 m/s	0.4784 ± 0.0041
x2 = 0.9	1018.4 ± 0.8	1.3956 ± 0.0013	1302.4 ± 1.7 m/s	0.5305 ± 0.0045

CCOCC [diethyl ether] + CCCCCO
Conditions	mass density, [4] [kg/m3]	refractive index, [3]	speed of sound, [4] [m/s]	viscosity, [4] [mPa·s]
x1 = 0.1167	805.2 ± 0.7	1.4043 ± 0.0013	1241.8 ± 1.7	2.651 ± 0.02
x1 = 0.2292	797.5 ± 0.7	1.3977 ± 0.0013	1216.7 ± 1.7	1.966 ± 0.015
x1 = 0.3377	788.9 ± 0.7	1.3922 ± 0.0013	1193.9 ± 1.7	1.491 ± 0.012
x1 = 0.4423	779.7 ± 0.7	1.3874 ± 0.0013	1172.2 ± 1.6	1.123 ± 0.0089
x1 = 0.5433	770.4 ± 0.7	1.3825 ± 0.0013	1141.6 ± 1.6	0.8294 ± 0.0068
x1 = 0.6409	759.5 ± 0.7	1.3774 ± 0.0013	1110.7 ± 1.6	0.6199 ± 0.0052
x1 = 0.7352	747.9 ± 0.7	1.3724 ± 0.0013	1077.3 ± 1.6	0.4811 ± 0.0042
x1 = 0.8263	736.1 ± 0.7	1.3664 ± 0.0013	1046.3 ± 1.6	0.382 ± 0.0034
x1 = 0.9146	723 ± 0.7	1.3601 ± 0.0013	1011.2 ± 1.6	0.3141 ± 0.0029
x1 = 1	708.3 ± 0.6	1.3515 ± 0.0013	982.3 ± 1.5	0.2469 ± 0.0024

CCCCCO [pentan-1-ol]
Conditions	mass density [kg/m3]	refractive index	speed of sound [m/s]	viscosity
[1]	–	1.41 ± 0.0013	–	–
[2]	811.2 ± 0.7	–	1271.6 ± 1.7	3.504 ± 0.026 mPa·s and 3.404 ± 0.025 mPa·s

CCCCCO [pentan-1-ol] + C1COCO1
x2 = 0
Conditions	mass density [kg/m3]	refractive index	speed of sound [m/s]	viscosity [mPa·s]
[3]	–	1.41 ± 0.0013	–	–
[4]	811.2 ± 0.7	–	1271.6 ± 1.7	3.504 ± 0.026

CCCCCO [pentan-1-ol] + CCOCC
x2 = 0
Conditions	mass density [kg/m3]	refractive index	speed of sound [m/s]	viscosity [mPa·s]
[3]	–	1.41 ± 0.0013	–	–
[4]	811.2 ± 0.7	–	1271.6 ± 1.7	3.504 ± 0.026
